# Results from US11083725B2 (priority 2014, dated 2021).
# Entries after “also recorded” stand apart in the source; their conditions may differ. Where two headings read alike, the source gives them in different places.
# Key:
# BMDCs [1] = assay: Isotopically labeled substrate utilization in bone marrow-derived dendritic cells; assay type: cell-based, mouse
# CA09 [2] = assay: microbe, parasite or virus in culture; assay type: cell-based, influenza virus H1N1 strain A/CA/04/2009; conditions: for Viral Titer Therapeutic: follow up validation titer, therapeutic treatment; for log reduction at 10 pM / log reduction at 0.0001 µM / log reduction at 0.001 µM / log reduction at 0.01 µM / log reduction at 0.1 µM / log reduction at 1 µM / log reduction at 10 µM / log reduction at 100 µM: NHBE, read-out: TCID50 (per mL)
# CA09 [3] = assay: High-throughput modified TCID50 viral titer of drug-screen supernatant on MDCK cells (area under the curve); assay type: cell-based, influenza virus H1N1 strain A/CA/04/2009; conditions: supernatant of CA09-infected NHBE cells titrated on MDCK cells
# NHBE cells [4] = assay: cells; assay type: cell-based, human
# CA09 [5] = assay: In vivo drug tests in CA09-infected mice: weight loss, survival, lung viral titer; parameters: species or system C57/B6 mice; conditions: for weight loss / survival: mice infected intranasally with CA09; for weight loss: daily drug for 7 days from 2 days before infection (NVP-BEZ235 25 mg/kg oral gavage; clotrimazole 120 mg/kg ip; α-mangostin 8 mg/kg ip); for survival: daily drug for 7 days from 2 days before infection, monitored 15 days
# BMDCs [6] = assay type: cell-based, mouse
# cMyc = assay: Influenza-induced cMyc expression in NHBE cells; assay type: cell-based, human; conditions: NHBE cells infected with CA04 up to 17 hours at MOI 1
# Experimental: Referring to FIG. 13B, NHBE cells were infected with CA04 for up to 17 hours at MOI 1, harvested at indicated time and RNA purified from lysates then quantified with […].
# NHBE cells [7] = assay: Seahorse spare respiratory and glycolytic capacity of infected NHBE cells; assay type: cell-based, human; conditions: 10 nM BEZ235 for 1 hr, infected 17 hours at MOI 1 with CA04
# PI3K/mTOR pathway = assay: Immunoblot of PI3K/mTOR pathway phosphorylation in infected NHBE cells; assay type: cell-based, human
# NHBE cells [8] = assay: Seahorse metabolic flux (ECAR, OCR, PPR) in NHBE cells; assay type: cell-based, human; conditions: drug 4 hours then infection at 1 MOI with CA04, read 17 hours later
# Experimental: OCR and ECAR were measured with the XF-24 Extracellular Flux Analyzer (Seahorse Bioscience, North Billerica, Mass.). Briefly, 2.5×10^5 cells/well were seeded with XF media (non-buffered DMEM with 25 mM glucose, 2 mM L-glutamine, and 1 mM sodium pyruvate) in a Cell-Tak (BD Biosciences, San Jose, Calif.)-coated plate 17 hours after infection and 1 hour before loading the plate into the instrument.
# Referring to FIG. 6A-C, NHBE cells were grown and differentiated in 24-well Seahorse plates and left untreated (control), infected for 17 hours at MOI 1 with either viable virus or a […] virus (CA09 or BPL, respectively) or stimulated with TLR agonists lipopolysaccharide (LPS), polyinosinic polycytidylic acid (PolyIC), or Resiquimod (R848). After treatment, the extracellular acidification rate (ECAR) (6A), oxygen consumption rate (OCR) (6B), and proton production rate (PPR) (6C) of NHBE cells were monitored for 2 hours. Error bars represent standard deviation from the mean of triplicate samples, where data represent 3 independent experiments.
# Referring to FIG. 12C-E, NHBE cells were seeded in XF24 SEAHORSE cell […] for 4 hours followed by infection at 1 MOI with CA04. 17 hours later plates were processed and read on Seahorse following manufactures protocol.
# [9] = Whole-body plethysmography of respiratory parameters in infected treated mice
# [10] = Blood chemistry and blood cell counts in treated infected mice; assay type: in vivo, C57/B6 mice; conditions: 25 mg/kg daily oral gavage
# Experimental: Referring to FIG. 9A-E, daily drug treatment was started 48 hours before intranasal infection with CA09 at an infectious dose of […] and maintained for 7 days. […] Data represent 3 mice per group.
# [11] = infected mice, whole-body plethysmography
compound,measurement,setting,value
lipopolysaccharide [LPS],glycolysis (radiolabeled metabolic substrate assay),BMDCs [1],slight increase
same,other substrate use measures (radiolabeled metabolic substrate assays),BMDCs [1],little effect
O=C(Nc1cccc(Nc2ncc(Br)c(NCCc3cnc[nH]3)n2)c1)N1CCCC1 [BX-912],Viral Titer Therapeutic,CA09 [2],Reduced
same,viral titers in the high-throughput screening,CA09 [3],reduced
Clc1ccccc1C(c1ccccc1)(c1ccccc1)n1ccnc1 [Clotrimazole],Viral Titer Prophylactic,CA09 [2],Reduced
same,viral titers in NHBE cells (validated drug hits),CA09 [2],consistently reduced; also recorded: consistent reduction
same,log reduction at 10 pM,CA09 [2],0.71
same,log reduction at 0.0001 µM,CA09 [2],0.85
same,log reduction at 0.001 µM,CA09 [2],0.84
same,log reduction at 0.01 µM,CA09 [2],0.7
same,log reduction at 0.1 µM,CA09 [2],0.48
same,log reduction at 1 µM,CA09 [2],0.95
same,log reduction at 10 µM,CA09 [2],0.9
same,log reduction at 100 µM,CA09 [2],1.07
same,Cell Death Prophylactic,NHBE cells [4],C > V
same,NHBE cell survival / cell death after infection,NHBE cells [4],differentially affected; also recorded: differential effects
same,weight loss,CA09 [5],little effect
same,survival,CA09 [5],little effect
polyinosinic polycytidylic acid [PolylC],all metabolites measured in flux assays,BMDCs [6],extreme drops
O=C1Nc2ccc3ncsc3c2/C1=C/c1cnc[nH]1 [Imidazolo-oxindole C 16],viral titers in the high-throughput screening,CA09 [3],reduced
same,Cell Death Therapeutic,NHBE cells [4],V > C
COc1c(O)cc2oc3cc(O)c(CC=C(C)C)c(O)c3c(=O)c2c1CC=C(C)C [α-Mangostin],viral titers in NHBE cells (validated drug hits),CA09 [2],consistent reduction
same,log reduction at 10 pM,"CA09 [2]; Prophylactic Drug Treatment, Drug Dose 10 pM, […]",0.74
same,log reduction at 0.0001 µM,"CA09 [2]; Prophylactic Drug Treatment, Drug Dose 100 pM, […]",0.69
same,log reduction at 0.001 µM,"CA09 [2]; Prophylactic Drug Treatment, Drug Dose 1 nM, […]",0.54
same,log reduction at 0.01 µM,"CA09 [2]; Prophylactic Drug Treatment, Drug Dose 10 nM, […]",0.65
same,log reduction at 0.1 µM,"CA09 [2]; Prophylactic Drug Treatment, Drug Dose 100 nM, […]",0.84
same,log reduction at 1 µM,"CA09 [2]; Prophylactic Drug Treatment, Drug Dose 1 μM, […]",0.71
same,log reduction at 10 µM,"CA09 [2]; Prophylactic Drug Treatment, Drug Dose 10 μM, […]",1.2
same,log reduction at 100 µM,"CA09 [2]; Prophylactic Drug Treatment, Drug Dose 100 μM, […]",0.85
same,Viral Titer Prophylactic,"CA09 [2]; […], prophylactic treatment",Reduced
same,viral titers in NHBE cells (validated drug hits),CA09 [2]; listed as α-mangostin,consistently reduced
same,Cell Death Prophylactic,NHBE cells [4],C > V
same,Cell Death Therapeutic,NHBE cells [4],C > V
same,NHBE cell survival / cell death after infection,NHBE cells [4],differential effects
same,NHBE cell survival / cell death after infection,NHBE cells [4]; listed as α-mangostin,differentially affected
same,weight loss,CA09 [5],little effect
same,survival,CA09 [5],little effect
O=CC[C@@H](O)[C@H](O)[C@H](O)CO [2-deoxyglucose],viral titer following therapeutic treatment,"CA09 [2]; FIG. 12B, NHBE supernatant titered on MDCK cells",efficient at reducing viral load
same,log reduction at 10 pM,CA09 [2],0.94
same,log reduction at 0.0001 µM,CA09 [2],0.35
same,log reduction at 0.001 µM,CA09 [2],0.48
same,log reduction at 0.01 µM,CA09 [2],0.43
same,log reduction at 0.1 µM,CA09 [2],0.28
same,log reduction at 1 µM,CA09 [2],0.87
same,log reduction at 10 µM,CA09 [2],1.01
same,log reduction at 100 µM,CA09 [2],0.85
same,Viral Titer Therapeutic,CA09 [2],Reduced
same,viral titers in the high-throughput screening,CA09 [3],reduced
same,NHBE cell survival / cell death after infection,NHBE cells [4],preferentially killed infected cells
CC(C)CCN1c2nc(Nc3cc(F)c(O)c(F)c3)ncc2N(C)C(=O)C1C (stereo not drawn) [BI-D1870],Viral Titer Prophylactic,CA09 [2],Reduced
same,log reduction at 10 pM,CA09 [2],0.28
same,log reduction at 0.0001 µM,CA09 [2],1.18
same,log reduction at 0.001 µM,CA09 [2],0.78
same,log reduction at 0.01 µM,CA09 [2],0.2
same,log reduction at 0.1 µM,CA09 [2],0.99
same,log reduction at 1 µM,CA09 [2],0.84
same,log reduction at 10 µM,CA09 [2],0.6
same,log reduction at 100 µM,CA09 [2],0.65
same,Cell Death Prophylactic,NHBE cells [4],C > V
Cn1c(=O)n(-c2ccc(C(C)(C)C#N)cc2)c2c3cc(-c4cnc5ccccc5c4)ccc3ncc21 [NVP-BEZ235],Viral Titer Prophylactic,CA09 [2],Reduced
same,viral titers in NHBE cells (validated drug hits),CA09 [2],consistently reduced; also recorded: consistent reduction; also recorded: one of the most significant drops; also recorded: highest efficacy
same,log reduction at 10 pM,CA09 [2],0.75
same,log reduction at 0.0001 µM,CA09 [2],0.42
same,log reduction at 0.001 µM,CA09 [2],0.5
same,log reduction at 0.01 µM,CA09 [2],0.53
same,log reduction at 0.1 µM,CA09 [2],0.29
same,log reduction at 1 µM,CA09 [2],0.51
same,log reduction at 10 µM,CA09 [2],0.97
same,log reduction at 100 µM,CA09 [2],0.91
same,influenza-induced cMyc expression,cMyc,ablates
same,viral titers in the high-throughput screening,CA09 [3],reduced
same,glycolytic capacity of infected NHBE,NHBE cells [7],slightly reducing; also recorded: slightly reduces
same,spare respiratory capacity of infected NHBE,NHBE cells [7],restores
same,Cell Death Prophylactic,NHBE cells [4],C = V
same,Cell Death Therapeutic,NHBE cells [4],C > V
same,NHBE cell survival / cell death after infection,NHBE cells [4],differentially affected; also recorded: differential effects
same,4E-BP1 phosphorylation,PI3K/mTOR pathway,completely abolished
same,70S6K phosphorylation,PI3K/mTOR pathway,completely abolished
same,mTOR phosphorylation,PI3K/mTOR pathway,reduces
same,phosphorylation of PRAS40,PI3K/mTOR pathway,time dependent decrease
same,"influenza induced metabolic flux (ECAR, OCR, PPR)",NHBE cells [8],reverse influenza induced metabolic flux to untreated levels; also recorded: reversed
same,respiratory function,[9]; infected adult mice,augments
same,breath frequency,[9]; [11],decreases
same,expiration time,[9]; [11],increases
same,inspiration time,[9]; [11],increases
same,mid-expiratory tidal flow,[9]; [11],reduction
same,minute volume,[9]; [11],decreases
same,tidal flow,[9]; [11],decreases
same,viral titer from the lungs (HA titer),"CA09 [5]; four days following infection, NVP-BEZ235 25 mg/kg oral gavage, titered on MDCK cells, 25 mg/kg",significant reduction; also recorded: significantly lower
same,influenza-induced mortality,CA09 [5]; infected adult mice,reduces
same,weight loss,CA09 [5],no significant effects; also recorded: no effect
same,survival,CA09 [5],profound improvement; also recorded: dramatically improved
same,tolerability,[10],well tolerated
same,blood amylase,[10]; bled on day 7,significantly altered
same,blood protein levels,[10]; bled on day 7,unchanged
same,dehydration as measured by blood electrolyte levels and renal function,[10]; bled on day 7,stable
same,immune cell proliferation in the blood,[10]; bled on day 7,no impact
same,signs of toxicity in the blood chemistry analysis or in critical blood cell counts,[10]; bled on day 7,no signs of toxicity
